Source: patent US6670183B2, “88kDa tumorigenic growth factor and antagonists” (A & G Pharmaceutical, Inc., priority 1997, dated 2003)

Experiments:
GP88 = assay: regulation of GP88 expression in 1246, 1246-3A and PC cells, Northern and Western blot; format: cell-based, mouse; settings: 1246 cells
Method: Fifteen or twenty micrograms of total RNA per sample were subjected to electrophoresis on a denaturing 1.2% agarose gel containing 0.22 M formaldehyde in 1×MOPS (10×MOPS: 0.2 M MOPS, 50 mM NaOAc 10 mM EDTA). RNA was blotted on nitrocellulose membrane (MSI Inc., Westboro, Mass.) by overnight capillary transfer in 10×SSC (20×SSC=3 M NaCl, 0.3 M Na Citrate pH 7.0). […] Results were quantitated by densitometric scanning. Ribosomal protein L32 mRNA was detected as internal standard for normalizing RNA loading.
Amounts of cell lysate and culture medium to be analyzed were normalized by cell number of 18×10^5 and 3×10^5 respectively. […] Proteins were electro transferred to immobilon membranes and GP88 detected using anti K19T antibody conjugated to horseradish peroxidase and detected by enhanced chemiluminescence (ECL).
GP88 expression was examined in 1246 cells in different culture conditions such as defined medium and serum containing medium. It was shown that the level of expression of GP88 mRNA (measured by Northern blot analysis) and protein (measured by Western blot analysis) in 1246 and in 1246-3A cells is inhibited when the cells are treated with 2% fetal bovine serum indicating the presence of circulating inhibitors of GP88 expression in fetal bovine serum (FIG. 1C). […]

GP88 mRNA = assay: regulation of GP88 mRNA expression in MDA MB-453 cells; format: cell-based, human

Substance | GP88 mRNA expression (GP88) | GP88 mRNA expression (GP88 mRNA)
EGF: epidermal growth factor | stimulated | 
insulin: hormone |  | stimulated
